Assay results published in US5763442A, “Anti-parasitic activity” (Universiteit Van Pretoria, priority 1995, dated 1998).

How the values were obtained:
[1] = system: Plasmodium falciparum (Fab-9); test: 3H-hypoxanthine uptake, chloroquine sensitive strain Fab-9; format: cell-based; settings: for PERCENTAGE INHIBITION (3H-hypoxanthine uptake): Fab-9
Protocol: (§1) The following experiment was done to confirm previous results which were obtained microscopically and details of which are set out in Example 1.
(§2) For this experiment the same two strains of P. falciparum, as used in Example 1 (RB-1 and Fab-9) were again used. Infected erythrocytes were diluted with human O-positive red blood cells to a parasitaemia of 0.2-0.9% and suspended to 3% in RPMI containing 44 mg/l hypxanthine and 10% human type serum. Aliquots (100 μl) of the suspension were dispensed into the wells of 96-well microtitre plates. To these suspensions 100 μl of the medium were added containing either chloroquine or B669 alone or a combination of chloroquine and B669. Relevant solvent controls were included. Negative control wells were also included containing uninfected red blood cells. The plates were incubated at 38° C. in a desiccator gassed with 5% O2, 5% CO2 and 90% N2. After 24 hours 100 μl culture medium of each well was replaced with […] of hypoxathine--free medium containing 10% human serum and 0,5μ Ci^3 H-hypoxanthine and incubated for a further 18 hours. The contents of the wells were then harvested on to glass fibre filters. The filters were washed with distilled water, dried, haemoglobin dissolved in a sodium bicarbonate solution and placed in scintillation vials containing 4 ml scintillation fluid and counted for 5 min in a liquid scintillation counter.
(§3) The percentage inhibition was calculated as follows: [formula] where CPM was the mean of two values of counts per minute for each treatment.

P. falciparum (RB-1) = test: Direct antimalarial activity, flow cytometry, strain RB-1; format: cell-based, Plasmodium falciparum
Protocol: To investigate the direct antimalarial activity of the riminophenazines B669, B4100, B4103, B4112, B4121, B4158 and B4169 against a laboratory strain of P. falciparum the following experiment was done:
A laboratory strain of P. falciparum (RB-1; obtained from Dr B L Sharp, National Malaria Research Programme, MRC, Durban) was maintained.
For these experiments malaria cultures of haematocrit 5.0% and initial parasitemia 2.0% were used. The malaria infected erythrocytes (ring stage) were incubated in microtitre plates with serial dilutions of B669, B4100, B4103, B4112, B4121, B4158 and B4169 (0.125-2 μg/ml) for 48 hours and processed for analysis on the flow cytometer as described in Example 3.

[2] = system: Plasmodium falciparum (Fab-9); test: 3H-hypoxanthine uptake, chloroquine sensitive strain Fab-9; format: cell-based; settings: read-out: PERCENTAGE INHIBITION (3H-hypoxanthine uptake)
[3] = system: Plasmodium falciparum (RB-9); test: 3H-hypoxanthine uptake, chloroquine resistant strain (RB-9 [sic]); format: cell-based; settings: for PERCENTAGE INHIBITION (3H-hypoxanthine uptake): RB-9 (so in the source)
Protocol: as §1, §2, §3

[4] = system: Plasmodium falciparum (RB-1); test: Microscopic parasitaemia, chloroquine resistant strain RB-1 (reversal of chloroquine resistance); format: cell-based; settings: for Percentage red blood cells infected with P. falciparum (RB-1): 24 h
Protocol: The activity of riminophenazines to reverse chloroquine resistance in Plasmodium falciparum was tested in the following manner:
A preliminary series of experiments were carried out using two laboratory strains of P. falciparum (RB-1 and Fab-9). These strains were obtained from the Medical Research Council, Durban, where they were characterised as being either mildly resistant or sensitive to chloroquine. The isolates were maintained in suspension culture in known manner (as described by Freese J A, Markus M B and Golenser J, 1991; Bulletin of the World Health Organization 69: 707-712).
Infected erythrocytes were diluted with human O-positive red blood cells to a parasitaemia of 0.2-0.9% and suspended to 3% in RPMI containing 44 mg/l hypoxanthine and 10% human type O serum. Aliquots (100 μl) of the suspension were dispensed into the wells of 96-well microtitre plates. To these suspensions 100 μl of the medium were added containing either chloroquine or B669 alone or in combination. The final drug concentrations were 31, 62, 125, 250 500 and 1000 nM for chloroquine and 0.125, 0.25, 0.5 and 1.0 μg/ml for B669. Relevant solvent controls were included. The plates were incubated for 24 hours at 38° C. in a desiccator gassed with 5% O2, 5% CO2 and 90% N2. Thin blood smears were prepared from each well, stained with Giemsa stain and the percentage of red blood cells infected by at least one parasite determined microscopically.

[5] = B669 0.125 μg/ml + chloroquine 31 nM
[6] = B669 0.125 μg/ml + chloroquine 62 nM
[7] = B669 0.125 μg/ml + chloroquine 250 nM
[8] = B669 0.125 μg/ml + chloroquine 500 nM
[9] = B669 0.125 μg/ml + chloroquine 1000 nM
[10] = B669 0.25 μg/ml + chloroquine 31 nM
[11] = B669 0.25 μg/ml + chloroquine 62 nM
[12] = B669 0.25 μg/ml + chloroquine 250 nM
[13] = B669 0.25 μg/ml + chloroquine 500 nM
[14] = B669 0.25 μg/ml + chloroquine 1000 nM
[15] = B669 0.5 μg/ml + chloroquine 62 nM
[16] = B669 0.5 μg/ml + chloroquine 125 nM
[17] = B669 0.5 μg/ml + chloroquine 250 nM
[18] = B669 0.5 μg/ml + chloroquine 500 nM
[19] = B669 0.5 μg/ml + chloroquine 1000 nM
[20] = B669 1.0 μg/ml + chloroquine 31 nM
[21] = B669 1.0 μg/ml + chloroquine 62 nM
[22] = B669 1.0 μg/ml + chloroquine 125 nM
[23] = B669 1.0 μg/ml + chloroquine 250 nM
[24] = B669 1.0 μg/ml + chloroquine 500 nM
[25] = B669 1.0 μg/ml + chloroquine 1000 nM
[26] = Plasmodium falciparum, read-out: PERCENTAGE INHIBITION (3H-hypoxanthine uptake)

Structure (SMILES): c1ccc(Nc2cc3nc4ccccc4n(-c4ccccc4)c-3cc2=NC2CCCCC2)cc1 [Compound B669, N,5-bis(phenyl)-3,5-dihydro-3-(cyclohexylimino)-2-phenazinamine]
- effect on sensitivity of chloroquine sensitive strain to chloroquine ([1]; 3H-hypoxanthine uptake): did not increase the sensitivity
- sensitivity of chloroquine sensitive strain to B669 alone ([1]; B669 alone 0.125-1.0 μg/ml): sensitive to B669 alone
- PERCENTAGE INHIBITION (3H-hypoxanthine uptake) [1, 5]: 12.9%
- PERCENTAGE INHIBITION (3H-hypoxanthine uptake) [1, 6]: 7.4%
- PERCENTAGE INHIBITION (3H-hypoxanthine uptake) ([1]; B669 0.125 μg/ml + chloroquine 125 nM): 68.3%
- PERCENTAGE INHIBITION (3H-hypoxanthine uptake) [1, 7]: 81.4%
- PERCENTAGE INHIBITION (3H-hypoxanthine uptake) [1, 8]: 100%
- PERCENTAGE INHIBITION (3H-hypoxanthine uptake) [1, 9]: 100%
- PERCENTAGE INHIBITION (3H-hypoxanthine uptake) [1, 10]: 21.0%
- PERCENTAGE INHIBITION (3H-hypoxanthine uptake) [1, 11]: 0%
- PERCENTAGE INHIBITION (3H-hypoxanthine uptake) ([1]; B669 0.25 μg/ml + chloroquine 125 nM): 34.9%
- PERCENTAGE INHIBITION (3H-hypoxanthine uptake) [1, 12]: 85.5%
- PERCENTAGE INHIBITION (3H-hypoxanthine uptake) [1, 13]: 100%
- PERCENTAGE INHIBITION (3H-hypoxanthine uptake) [1, 14]: 100%
- PERCENTAGE INHIBITION (3H-hypoxanthine uptake) ([1]; B669 0.5 μg/ml + chloroquine 31 nM): 60.5%
- PERCENTAGE INHIBITION (3H-hypoxanthine uptake) [1, 15]: 91.7%
- PERCENTAGE INHIBITION (3H-hypoxanthine uptake) [1, 16]: 93.6%
- PERCENTAGE INHIBITION (3H-hypoxanthine uptake) [1, 17]: 100%
- PERCENTAGE INHIBITION (3H-hypoxanthine uptake) [1, 18]: 100%
- PERCENTAGE INHIBITION (3H-hypoxanthine uptake) [1, 19]: 100%
- PERCENTAGE INHIBITION (3H-hypoxanthine uptake) [1, 20]: 98.8%
- PERCENTAGE INHIBITION (3H-hypoxanthine uptake) [1, 21]: 95.9%
- PERCENTAGE INHIBITION (3H-hypoxanthine uptake) [1, 22]: 100%
- PERCENTAGE INHIBITION (3H-hypoxanthine uptake) [1, 23]: 100%
- PERCENTAGE INHIBITION (3H-hypoxanthine uptake) [1, 24]: 100%
- PERCENTAGE INHIBITION (3H-hypoxanthine uptake) [1, 25]: 100%
- direct anti-malaria activity ([1]; especially chloroquine sensitive strain): Direct anti-malaria activity
- inhibition at 0.5 µg/mL (P. falciparum (RB-1); Plasmodium falciparum, 0.5 μg/ml, 48 h, FIG. 2, read-out: inhibition of growth of P. falciparum): > 50%
- activity against the malaria microorganism Plasmodium falciparum (P. falciparum (RB-1); summary statement): good activity
- inhibition at 0.125 µg/mL [2]: 29.8%
- inhibition at 0.25 µg/mL [2]: 10.4%
- inhibition at 0.5 µg/mL [2]: 41.7%
- inhibition at 1 µg/mL [2]: 46.6%
- increase of sensitivity to chloroquine, chloroquine resistant strain ([3]; 250 nM chloroquine, 0.125-0.5 μg/ml B669): up to three fold
- increase of sensitivity to chloroquine, chloroquine resistant strain ([3]; 125 μM (so in the source) chloroquine, 0.5 and 1.0 μg/ml B669): up to ten fold
- inhibition at 0.125 µg/mL [3, 26]: 0%
- inhibition at 0.25 µg/mL [3, 26]: 0%
- inhibition at 0.5 µg/mL [3, 26]: 0%
- inhibition at 1 µg/mL [3, 26]: 0%
- PERCENTAGE INHIBITION (3H-hypoxanthine uptake) [3, 5]: 15.2%
- PERCENTAGE INHIBITION (3H-hypoxanthine uptake) [3, 6]: 12.2%
- PERCENTAGE INHIBITION (3H-hypoxanthine uptake) [3, 7]: 100%
- PERCENTAGE INHIBITION (3H-hypoxanthine uptake) [3, 8]: 100%
- PERCENTAGE INHIBITION (3H-hypoxanthine uptake) [3, 9]: 100%
- PERCENTAGE INHIBITION (3H-hypoxanthine uptake) [3, 11]: 26.4%
- PERCENTAGE INHIBITION (3H-hypoxanthine uptake) [3, 12]: 100%
- PERCENTAGE INHIBITION (3H-hypoxanthine uptake) [3, 13]: 98.8%
- PERCENTAGE INHIBITION (3H-hypoxanthine uptake) [3, 14]: 95%
- PERCENTAGE INHIBITION (3H-hypoxanthine uptake) [3, 15]: 16.6%
- PERCENTAGE INHIBITION (3H-hypoxanthine uptake) [3, 16]: 92%
- PERCENTAGE INHIBITION (3H-hypoxanthine uptake) [3, 17]: 95%
- PERCENTAGE INHIBITION (3H-hypoxanthine uptake) [3, 18]: 100%
- PERCENTAGE INHIBITION (3H-hypoxanthine uptake) [3, 19]: 100%
- PERCENTAGE INHIBITION (3H-hypoxanthine uptake) [3, 20]: 58.6%
- PERCENTAGE INHIBITION (3H-hypoxanthine uptake) [3, 21]: 100%
- PERCENTAGE INHIBITION (3H-hypoxanthine uptake) [3, 22]: 100%
- PERCENTAGE INHIBITION (3H-hypoxanthine uptake) [3, 23]: 100%
- PERCENTAGE INHIBITION (3H-hypoxanthine uptake) [3, 24]: 100%
- PERCENTAGE INHIBITION (3H-hypoxanthine uptake) [3, 25]: 100%
- effects of the experimental drug at low chloroquine concentrations ([3]; chloroquine 31 and 62 nM): Effects of the experimental drug was also seen
- increase of sensitivity to chloroquine, chloroquine resistant strain ([4]; 125 nM chloroquine, 0.125 μg/ml B669): up to two fold
- increase of sensitivity to chloroquine, chloroquine resistant strain ([4]; 500 nM chloroquine, 0.25 μg/ml B669): up to three fold
- Percentage red blood cells infected with P. falciparum (RB-1) ([4]; B669 0.125 μg/ml + chloroquine 125 nM, *parasites morphologically abnormal): 1.6%
- Percentage red blood cells infected with P. falciparum (RB-1) [4, 8]: 1.3%
- Percentage red blood cells infected with P. falciparum (RB-1) ([4]; B669 0.125 μg/ml alone): 3.6%
- Percentage red blood cells infected with P. falciparum (RB-1) [4, 10]: 3.9%
- Percentage red blood cells infected with P. falciparum (RB-1) ([4]; B669 0.25 μg/ml + chloroquine 62 nM, *parasites morphologically abnormal): 2.8%
- Percentage red blood cells infected with P. falciparum (RB-1) ([4]; B669 0.25 μg/ml + chloroquine 125 nM, *parasites morphologically abnormal): 1.9%
- Percentage red blood cells infected with P. falciparum (RB-1) ([4]; B669 0.25 μg/ml + chloroquine 500 nM, *parasites morphologically abnormal): 0.9%
- Percentage red blood cells infected with P. falciparum (RB-1) [4, 14]: 0%
- Percentage red blood cells infected with P. falciparum (RB-1) ([4]; B669 0.25 μg/ml alone): 4.0%
- Percentage red blood cells infected with P. falciparum (RB-1) ([4]; B669 0.5 μg/ml + chloroquine 250 nM, *parasites morphologically abnormal): 1.4%
- Percentage red blood cells infected with P. falciparum (RB-1) [4, 19]: 0.1%
- Percentage red blood cells infected with P. falciparum (RB-1) ([4]; B669 0.5 μg/ml alone): 3.2%
- Percentage red blood cells infected with P. falciparum (RB-1) ([4]; B669 1.0 μg/ml + chloroquine 31 nM, *parasites morphologically abnormal): 2.6%
- Percentage red blood cells infected with P. falciparum (RB-1) ([4]; B669 1.0 μg/ml + chloroquine 250 nM, *parasites morphologically abnormal): 0.1%
- Percentage red blood cells infected with P. falciparum (RB-1) [4, 25]: 0%
- Percentage red blood cells infected with P. falciparum (RB-1) ([4]; B669 1.0 μg/ml alone, *parasites morphologically abnormal): 2.6%
- direct effect on parasite morphology ([4]; B669 alone 1.0 μg/ml): morphological deterioration of the parasites was observed
- percentage parasitaemia versus untreated control systems ([4]; B669 alone 1.0 μg/ml): did not differ from the untreated control systems
